# Measurements as given in ChEMBL document CHEMBL5303304, “EUbOPEN Chemogenomics Library - IncuCyte” (2023).
# What was measured:
# Assay type in all cases: toxicity, cell-based
# [1] = system: Fibroblast; test: Incucyte cell viability with human fibroblast; conditions: 10 µM, compound concentration 10 uM
# [2] = system: HEK-293T; test: Incucyte cell viability with HEK293T; conditions: human, 10 µM, compound concentration 10 uM
# [3] = system: U2OS; test: Incucyte cell viability with U2OS; conditions: human, 10 µM, compound concentration 10 uM
# Further: unitless GR value; below 1 slowed growth and below 0 cell loss.
Compound,"Growth Rate ([1]; 6 h, replicate number 1)","Growth Rate ([1]; 6 h, replicate number 2)","Growth Rate ([1]; 12 h, replicate number 1)","Growth Rate ([1]; 12 h, replicate number 2)","Growth Rate ([1]; 18 h, replicate number 1)","Growth Rate ([1]; 18 h, replicate number 2)","Growth Rate ([1]; 24 h, replicate number 1)","Growth Rate ([1]; 24 h, replicate number 2)","Growth Rate ([2]; 0 h, replicate number 2)","Growth Rate ([2]; 6 h, replicate number 1)","Growth Rate ([2]; 6 h, replicate number 2)","Growth Rate ([2]; 12 h, replicate number 2)","Growth Rate ([2]; 18 h, replicate number 1)","Growth Rate ([2]; 24 h, replicate number 1)","Growth Rate ([2]; 24 h, replicate number 2)","Growth Rate ([3]; 6 h, replicate number 1)","Growth Rate ([3]; 12 h, replicate number 1)","Growth Rate ([3]; 12 h, replicate number 2)","Growth Rate ([3]; 24 h, replicate number 1)","Growth Rate ([2]; 18 h, replicate number 2)",further results
CN1CCC(F)(Cn2cnc(-c3ccc(F)cn3)c2-c2ccnc3[nH]ccc23)CC1,-0.23,0.29,0.6,0.78,0.66,0.68,0.81,0.8,-0.77,0.99,0.85,0.86,0.93,0.9,0.74,0.99,0.8,0.87,0.84,,"Growth Rate ([2]; 0 h, replicate number 1): 0.3; Growth Rate ([3]; 0 h, replicate number 1): 0.97; Growth Rate ([3]; 6 h, replicate number 2): 0.77; Growth Rate ([3]; 18 h, replicate number 1): -0.61; Growth Rate ([3]; 18 h, replicate number 2): 0.94; Growth Rate ([3]; 24 h, replicate number 2): 0.68"
Cc1onc(-c2ccc(F)cc2)c1COc1ccc(C(=O)N2CCS(=O)(=O)CC2)cn1 [BASMISANIL],,-0.92,-1,0.69,-0.07,,,,,,0.2,0.86,,0.97,0.94,0.73,0.73,0.8,0.86,0.92,"Growth Rate ([1]; 0 h, replicate number 2): -0.96; Growth Rate ([3]; 6 h, replicate number 2): 0.62; Growth Rate ([3]; 18 h, replicate number 1): 0.87; Growth Rate ([3]; 18 h, replicate number 2): 0.98; Growth Rate ([3]; 24 h, replicate number 2): 0.82"
CC(C)(C)c1cc(C(C)(C)C)c(NC(=O)c2c[nH]c3ccccc3c2=O)cc1O [IVACAFTOR],,0.55,,,0.28,0.65,,0.91,0.3,0.19,0.98,0.69,0.65,0.92,0.72,,,0.7,0.98,0.75,"Growth Rate ([1]; 0 h, replicate number 2): -0.84; Growth Rate ([2]; 12 h, replicate number 1): 0.71; Growth Rate ([3]; 0 h, replicate number 2): 0.5; Growth Rate ([3]; 18 h, replicate number 2): 0.92; Growth Rate ([3]; 24 h, replicate number 2): 0.89"
Cc1[nH]nc(C(F)(F)F)c1Cc1sc2c(c1C(=O)N1C[C@](C)(O)CO1)c(=O)n(C)c(=O)n2C(C)C [AZD3965],0.95,,,0.69,,0.97,0.9,0.8,-0.81,,,0.43,0.17,0.11,0.21,,0.92,0.71,0.75,0.22,"Growth Rate ([2]; 0 h, replicate number 1): -0.63; Growth Rate ([2]; 12 h, replicate number 1): 0.53; Growth Rate ([3]; 18 h, replicate number 2): 0.69; Growth Rate ([3]; 24 h, replicate number 2): 0.83"
O=C1COc2cc(C(=O)N(Cc3ccc(C(=O)Nc4ccncn4)cc3)C3CC3)ccc2N1,0.36,0.55,0.28,0.88,0.54,0.79,0.74,0.98,-0.63,0.38,0.01,0.42,0.75,0.95,0.72,0.39,0.37,0.8,0.73,0.66,"Growth Rate ([2]; 12 h, replicate number 1): 0.74; Growth Rate ([3]; 0 h, replicate number 1): -0.53; Growth Rate ([3]; 0 h, replicate number 2): 0.72; Growth Rate ([3]; 6 h, replicate number 2): 0.77; Growth Rate ([3]; 18 h, replicate number 1): 0.61; Growth Rate ([3]; 18 h, replicate number 2): 0.77; Growth Rate ([3]; 24 h, replicate number 2): 0.87"
H-LVVYPWT-OH [SPINORPHIN],-0.34,-0.61,-1,0.52,0.38,0.87,0.41,0.94,0.94,0.99,,,,,,0.61,0.76,0.43,,,"Growth Rate ([1]; 0 h, replicate number 1): -0.25; Growth Rate ([1]; 0 h, replicate number 2): -0.78; Growth Rate ([2]; 0 h, replicate number 1): 0.9; Growth Rate ([3]; 0 h, replicate number 1): 0.44; Growth Rate ([3]; 0 h, replicate number 2): -1; Growth Rate ([3]; 6 h, replicate number 2): 0.08; Growth Rate ([3]; 18 h, replicate number 1): 0.82; Growth Rate ([3]; 18 h, replicate number 2): 0.66; Growth Rate ([3]; 24 h, replicate number 2): 0.92"
CCC(=O)N[C@@H]1CC[C@H](C(=O)N(C)c2ccc(-c3nc4ccccc4o3)cc2)C1 [BI 99990],,,,,,,0.79,0.81,,-0.34,0.12,0.49,0.8,0.82,0.8,0.62,0.58,0.64,0.96,0.66,"Growth Rate ([2]; 12 h, replicate number 1): 0.47; Growth Rate ([3]; 6 h, replicate number 2): 0.78"
COCCNc1cc(NC(=O)N2CCCc3cc(CN4CCN(C)CC4=O)c(C=O)nc32)ncc1C#N [FGF401],0.08,,-1,,0.24,,0.74,,0.45,0.68,0.95,0.82,0.87,,,0.86,0.86,,0.98,0.98,"Growth Rate ([1]; 0 h, replicate number 2): 0.95; Growth Rate ([3]; 0 h, replicate number 1): -0.62; Growth Rate ([3]; 18 h, replicate number 1): 0.93"
CC(C)(C[C@H]1CN(S(=O)(=O)c2cccc(C(F)(F)F)c2)c2cc(-c3cc(F)cc(OC(F)F)c3)ccc2O1)C(=O)O [CINTIRORGON],-0.68,0.8,0.59,0.54,0.49,0.81,0.29,0.69,-0.41,0.88,0.81,0.88,,,,,0.81,,,0.9,"Growth Rate ([1]; 0 h, replicate number 2): 0.71; Growth Rate ([2]; 0 h, replicate number 1): 1; Growth Rate ([3]; 0 h, replicate number 1): 0.78; Growth Rate ([3]; 18 h, replicate number 1): 0.78"
